# PMC9861623, “New Ferulic Acid and Amino Acid Derivatives with Increased Cosmeceutical and Pharmaceutical Potential” (Pharmaceutics, 2022)
# Read-outs that look alike come from different tables or passages of the source.
# Assays:
# L929 cells = system: L929 cells; parameters: method as in PMID 24344870; details: L929, 72 h, cited from earlier work
# [1] = Skin permeation in Franz diffusion cells; format: in vitro ADME, pig; details: 24 h, 10 mg as FA applied
# Protocol: In the experiment, abdominal porcine skin coming from the local slaughterhouse was used. Pig skin was chosen because of its similar permeability to human skin [34, 35]. The fresh abdominal porcine skin was washed several times in PBS buffer pH 7.4. The skin of 0.5 mm in thickness was dermatomed and divided into 2 cm × 2 cm pieces. The skin samples were wrapped in aluminum foil and stored at −20 °C until use, not longer than 3 months. According to Badran et al., this storage time at this temperature is safe to keep skin barrier properties. Immediately before the experiment, the skin samples were slowly thawed at room temperature for 30 min and then were hydrated by PBS pH 7.4 [37, 38, 39, 40]. Such prepared skin was mounted on donor chamber. Only the undamaged skin pieces with an even thickness were chosen for experiments. The integrity of the skin was checked by impedance measurement using an LCRmeter4080 (Conrad Electronic, Hirschau, Germany), operated in parallel mode at an alternating frequency of 120 Hz (error at kΩ values < 0.5%). The tips of measuring probes were immersed in the donor and acceptor chamber containing PBS (pH 7.4), as described previously. Only skin samples of impedance > 3 kΩ were applied as such impedance is similar to the electrical resistance of human skin [42].
# The concentration of FA and its derivatives in the acceptor fluid and in the fluid obtained by skin extraction after permeation experiment was assessed using liquid chromatography system (Knauer, Berlin, Germany) consisting of a model 2600 UV detector, Smartline model 1050 pump and Smartline model 3950 autosampler. HPLC was controlled by ClarityChrom 2009 software. The detector was operated at 280 nm. The separations were performed on 125 mm × 4 mm ID chromatographic column filled with Hyperisil ODS (C18), particle size 5 µm, in isocratic mode. The mobile phase consisted of acetonitrile, 1% acetic acid, and MeOH (47/47/6 v/v/v) and was pumped at flow rate of 1 mL min^−1. The column temperature was set at 25 °C, and the injection volume was 20 µL.
# The permeation experiments were performed using Franz diffusion cells (Phoenix DB-6, ABL&E-JASCO, Wien, Austria). The diffusion was 1 cm^2. The volume of the acceptor chamber was 8 mL. This chamber was filled with PBS solution (pH 7.4). During experiment, a constant temperature of 37.0 ± 0.5 °C was maintained in each diffusion unit. The acceptor chamber content was stirred with a magnetic stirring bar at the same speed for all cells. The prepared pig skin was mounted on each donor chamber. As previously mentioned, only undamaged skin pieces with an even thickness were chosen for experiments. Thereafter, the hydrogel or emulsion vehicle/preparation in 1 g portion was put on the skin in donor cells. For comparison, 1 mL ethanolic solution containing either FA or its derivatives was applied to another donor chamber. The amount of the FA and its derivatives applied on the skin expressed as the mass of ferulic acid was 0.01 g and was the same for each carrier. The penetration experiments were carried out for 24 h. The samples were collected after 1 h, 2 h, 3 h, 4 h, 5 h, 6 h, 8 h, and 24 h. Aliquots of the acceptor fluid (0.5 mL) were withdrawn and to each acceptor chamber the same volume of fresh PBS solution was added. The FA and its derivatives’ concentrations in the acceptor fluid were measured by HPLC method (Section 2.6.2). The cumulative mass (µg·cm^−2) and penetration rate (µg·cm^−2·h^−1) were calculated. The acceptor fluid collected after 24 h of permeation was also measured for antioxidant activity and total polyphenol content (as described in Section 2.5.1 and Section 2.5.2).
# [2] = n-octanol/water partition coefficient by shake flask method; format: physicochemical; details: from log PO/W
# Protocol: The n-octanol/water partition coefficient (log PO/W) was determined for ferulic acid and its derivatives by shake flask method. n-Octanol saturated with water and water saturated with n-octanol were prepared at 25 °C, 24 h prior to their use in the experiments. Then, a sample of 10 mg of compound was weighed with the accuracy of 0.01 mg in a 16 cm^3 screwed vial and dissolved in 5 cm^3 of n-octanol. Next, 5 cm^3 of water was added to the vial. The resulting two-phase mixture was kept in water bath shaker at 25 °C for 2 h and was strongly shaken to reach the partition equilibrium of the compound between the phases. Then the mixture was left unshaken for 30 min and 1.0 cm^3 of water phase was carefully taken out to centrifuge tube. The sample was next centrifuged for 10 min at 7500 rpm at 25 °C to ensure the most precise phase separation. The concentration of compound in water phase was then determined using HPLC method. The partition coefficient, log PO/W was calculated according to the formula: logPO/W=logC0V0−CWVW/CWVW where: C0—initial concentration of the compound in n-octanol, calculated based on the weighed mass of compound, mg·cm^−^3; V0—volume of n-octanol, cm^3; CW—concentration of the compound in water after partition equilibrium, mg·cm^−^3; VW—volume of water, cm^3.
smiles,measurement,setting,value
COc1cc(/C=C/C(=O)O)ccc1O [Ferulic acid],cell viability,L929 cells; 500 μg mL^−1 (2.57 mM),67%
same,cell viability,L929 cells; 1000 μg mL^−1 (5.15 mM),28%
same,Cumulative Permeation Mass,[1]; from emulsion,104.93 ± 7.63 a µg FA·cm^−2
same,Cumulative Permeation Mass,[1]; from hydrogel,289.36 ± 38.50 a µg FA·cm^−2
same,Cumulative Permeation Mass,[1]; from solution in 70% (v/v) ethanol,368.57 ± 2.94 a µg FA·cm^−2
same,Share of compound partitioned to n-octanol,[2],~98%
